Data published in US11578071B2, “Preparation of pyrazolo[3,4-B]pyridines as antimalarials” (University of Kentucky Research Foundation, priority 2019, dated 2023).

How the values were obtained:
HepG2-A16-CD81EGFP cells = assay: HepG2 Cytotoxicity Bioluminescence Assay; type: cell-based; details: Homo sapiens, 48 h, mean ± SD of two measurements
[1] = tested on: P. falciparum 3D7 gametocytes; assay: Gametocyte EC50 determination; type: cell-based; details: Plasmodium falciparum
Method: Asexual cultures of P. falciparum 3D7 parasites were used to seed gametocyte cultures at 1% parasitemia and 4% hematocrit as previously described. Culture medium (RPMI medium with 25 mM HEPES, 50 mg/L hypoxanthine, 2 g/L sodium bicarbonate and 10% human serum) was replaced daily for at least 14 day with all solutions, pipettes and work surfaces treated at 37° C. Typical cultures follow the pattern of asexual parasitemia rising to a peak and crashing at days 4-5, with stage II gametocytes visible at day 7, stage III visible at day 9, stage IV visible at day 11, and stage V visible at day 14 with high levels of exflagellation.
To determine EC50 values, the number of exflagellation centers per field, mean oocyst intensity and prevalence of infection were normalized to the respective DMSO treated control and % inhibition calculated. Tested compounds were prepared as a DMSO solutions from 25 μM to 0.026 μM across 22 points. Percentage inhibition data obtained from each individual parameter was fitted to a four-parameter logistic equation with variable slope using GraphPad Prism 6.07 for which compound concentrations were first transformed to their respective log10 values. The data were then fitted using these transformed values without defining constraints.

[2] = tested on: P. berghei luciferase sporozoites in HepG2-A16-CD81EGFP cells; assay: Plasmodium Berghei Luciferase Liver Stage Bioluminescence Assay; type: cell-based; details: in words
[3] = tested on: erythrocytes infected with the 3D7 strain; assay: FACS Killing Rate Assay; type: cell-based, Plasmodium falciparum; design: % Survival at 0 h: concentration or dose not given beside the values; details: for % Survival (24 h) / % Survival (48 h) / % Survival at 0 h: 3D7; for % Survival (24 h): 24 h treatment at 10× IC50; for % Survival (24 h) / % Survival (48 h): mean ± SD of two measurements; for % Survival (48 h): 48 h treatment at 10× IC50; for % Survival at 0 h: treatment time 0 h; for killing profile: in words, compared with chloroquine, pyrimethamine, atovaquone, artesunate
Method: After treatment, the compound is removed and the culture is diluted (⅓^rd dilution) using fresh erythrocytes (2% hematocrit) previously labeled with CFDA-SE (carboxylfluorescein diacetate succinimidyl ester, Life Technologies). […] Samples were analyzed using the Attune N×T software package.

| melting point [°C] | Compound | % Survival at 0 h [3] [%] | further results |
| --- | --- | --- | --- |
| 205 to 207 | CCc1ccc(-c2nc3c(c(C)nn3-c3ccccc3)c(-c3ccccc3I)c2C#N)cc1 [Compound 8, 6-(4-Ethylphenyl)-4-(2-iodophenyl)-3-methyl-1-phenyl-1H-pyrazolo[3,4-b]pyridine-5-carbonitrile] |  |  |
|  | CCc1ccc(-c2nc3c(c(C)nn3-c3ccccc3)c(-c3ccccc3OC(F)(F)F)c2C#N)cc1 [Compound 17, 6-(4-Ethylphenyl)-3-methyl-1-phenyl-4-[2-(trifluoromethoxy)phenyl]-1H-pyrazolo[3,4-b]pyridine-5-carbonitrile] |  | EC50 (HepG2-A16-CD81EGFP cells): > 25 µM; EC50 [1]: > 25 µM; potency against the liver stage of the parasite [2]: sub-micromolar potency |
| 254 to 256 | Cc1nn(-c2ccccc2)c2nc(-c3ccc(C(F)(F)F)cc3)c(C#N)c(-c3ccccc3O)c12 [Compound 30, 4-(2-hydroxyphenyl)-3-methyl-1-phenyl-6-[4-(trifluoromethyl)phenyl]-1H-pyrazolo[3,4-b]pyridine-5-carbonitrile] |  |  |
| 201 to 203 | CCc1ccc(-c2nc3c(c(C)nn3-c3ccccc3)c(-c3ccccc3C#N)c2C#N)cc1 [Compound 7, 4-(2-Cyanophenyl)-6-(4-ethylphenyl)-3-methyl-1-phenyl-1H-pyrazolo[3,4-b]pyridine-5-carbonitrile] |  |  |
| 281 to 282 | Cc1nn(-c2ccccc2)c2nc(-c3ccc(Cl)cc3)c(C#N)c(-c3ccccc3O)c12 [Compound 32, 6-(4-chlorophenyl)-4-(2-hydroxyphenyl)-3-methyl-1-phenyl-1H-pyrazolo[3,4-b]pyridine-5-carbonitrile] |  |  |
| 289 to 291 | Cc1nn(-c2ccccc2)c2nc(-c3ccc(I)cc3)c(C#N)c(-c3ccccc3O)c12 [Compound 33, 4-(2-hydroxyphenyl)-6-(4-iodophenyl)-3-methyl-1-phenyl-1H-pyrazolo[3,4-b]pyridine-5-carbonitrile] |  |  |
| 196 to 198 | CCc1ccc(-c2nc3c(c(C)nn3-c3ccccc3)c(-c3ccccc3OC)c2C#N)cc1 [Compound 16, 6-(4-Ethylphenyl)-4-(2-methoxyphenyl)-3-methyl-1-phenyl-1H-pyrazolo[3,4-b]pyridine-5-carbonitrile] |  |  |
| 197 to 199 | CCc1ccc(-c2nc3c(c(C)nn3-c3ccccc3)c(-c3ccccc3F)c2C#N)cc1 [Compound 11, 6-(4-Ethylphenyl)-4-(2-fluorophenyl)-3-methyl-1-phenyl-1H-pyrazolo[3,4-b]pyridine-5-carbonitrile] |  |  |
| 234 to 236 | Cc1nn(-c2ccccc2)c2nc(-c3ccc(F)cc3)c(C#N)c(-c3ccccc3O)c12 [Compound 31, 6-(4-fluorophenyl)-4-(2-hydroxyphenyl)-3-methyl-1-phenyl-1H-pyrazolo[3,4-b]pyridine-5-carbonitrile] |  |  |
|  | O=C1C(O)=C([C@H]2CC[C@H](c3ccc(Cl)cc3)CC2)C(=O)c2ccccc21 [Atovaquone] | 100 | % Survival (24 h) [3]: 78.96 ± 3.89%; % Survival (48 h) [3]: 39.89 ± 4.37% |
| 208 to 209 | CCc1ccc(-c2nc3c(c(C)nn3-c3ccccc3)c(-c3ccccc3Br)c2C#N)cc1 [Compound 9, 4-(2-Bromophenyl)-6-(4-ethylphenyl)-3-methyl-1-phenyl-1H-pyrazolo[3,4-b]pyridine-5-carbonitrile] |  |  |
| 165 to 166 | Cc1nn(-c2ccccc2)c2nc(-c3ccc(C#N)cc3)c(C#N)c(-c3ccccc3O)c12 [Compound 34, 6-(4-cyanophenyl)-4-(2-hydroxyphenyl)-3-methyl-1-phenyl-1H-pyrazolo[3,4-b]pyridine-5-carbonitrile] |  |  |
|  | Cc1nn(-c2ccccc2)c2nc(-c3ccc(C(C)(C)C)cc3)c(C#N)c(-c3ccccc3O)c12 [Compound 27, 6-(4-tert-butylphenyl)-4-(2-hydroxyphenyl)-3-methyl-1-phenyl-1H-pyrazolo[3,4-b]pyridine-5-carbonitrile] | 100 | killing profile [3]: moderate killing profile; EC50 [1]: > 25 µM |
|  | CCc1nc(N)nc(N)c1-c1ccc(Cl)cc1 [Pyrimethamine] | 100 | % Survival (24 h) [3]: 56.37 ± 2.55%; % Survival (48 h) [3]: 16.02 ± 4.36% |
| 203 to 204 | CCc1ccc(-c2nc3c(c(C)nn3-c3ccccc3)c(-c3ccccc3C)c2C#N)cc1 [Compound 12, 6-(4-Ethylphenyl)-3-methyl-4-(2-methylphenyl)-1-phenyl-1H-pyrazolo[3,4-b]pyridine-5-carbonitrile] |  |  |
|  | C[C@H]1[C@H](OC(=O)CCC(=O)O)O[C@@H]2O[C@@]3(C)CC[C@H]4[C@H](C)CC[C@@H]1[C@@]24OO3 [Artesunate] | 100 | % Survival (24 h) [3]: 17.50 ± 3.68%; % Survival (48 h) [3]: 6.44 ± 0.51% |
| 257 to 258 | Cc1nn(-c2ccccc2)c2nc(-c3ccc([N+](=O)[O-])cc3)c(C#N)c(-c3ccccc3O)c12 [Compound 35, 4-(2-hydroxyphenyl)-3-methyl-6-(4-nitrophenyl)-1-phenyl-1H-pyrazolo[3,4-b]pyridine-5-carbonitrile] |  |  |
|  | CCc1ccc(-c2nc3c(c(C)nn3-c3ccccc3)c(-c3ccccc3Cl)c2C#N)cc1 [Compound 10, 4-(2-Chlorophenyl)-6-(4-ethylphenyl)-3-methyl-1-phenyl-1H-pyrazolo[3,4-b]pyridine-5-carbonitrile] | 100 | EC50 (HepG2-A16-CD81EGFP cells): > 50 µM; killing profile [3]: slow killing profile; EC50 [1]: > 25 µM; potency against the liver stage of the parasite [2]: sub-micromolar potency |
| 193 to 195 | CCc1ccc(-c2nc3c(c(C)nn3-c3ccccc3)c(-c3ccccc3C(F)(F)F)c2C#N)cc1 [Compound 15, 6-(4-Ethylphenyl)-3-methyl-1-phenyl-4-[2-(trifluoromethyl)phenyl]-1H-pyrazolo[3,4-b]pyridine-5-carbonitrile] |  |  |
|  | CCN(CC)CCCC(C)Nc1ccnc2cc(Cl)ccc12 (stereo not drawn) [Chloroquine] | 100 | % Survival (24 h) [3]: 18.69 ± 7.34%; % Survival (48 h) [3]: 9.21 ± 2.08% |
